Assay results: patent US7671058B2, “N-(3,4-disubstituted phenyl) salicylamide derivatives” (Institute of Medicinal Molecular Design, Inc., priority 2006, dated 2010)
pIC50: −log10 of the molar value. Read-outs that look alike come from different tables or passages of the source.

Experiments:
NF-κB = NF-κB inhibition test: pNFκB-Luc luciferase reporter in U2-OS cells stimulated with human TNF α; type: cell-based; conditions: human TNF α 10 ng/mL; for inhibition at 2 µM / Inhibition Rate of NF-κB (%): compound 2 μM, 8 hours; for inhibition at 2 µM: read-out: Inhibition Rate of NF-κB (%); for pIC50: from inhibition rates at 1, 0.1, 0.01 and 0.001 μM, read-out: IC50 against activation of NF-κB
Procedure: (1) Transfection to U2-OS Cells and Inhibition Test of Activation
U2-OS cells were seeded at 2×10^4 cells/well in 96-well culture plate, and transfection was carried out using FuGENE 6 Transfection Reagent (Roche Diagnostics GmbH). The procedures of the transfection are shown below.
11 μg of reporter plasmid (pNFκB-Luc; Stratagene Corporation) and 1.1 μg of pCMV β (CLONTECH Laboratories, Inc.) were mixed in 1.1 mL of OPTI-MEM I medium (GIBCO BRL) (solution (A)).
[…] of FuGENE 6 Transfection Reagent was mixed in 1.1 mL of OPTI-MEM I medium (solution (B)).
(§1) The above solution (A) and solution (B) were mixed, let them stand for 15 minutes at room temperature, then, 8.8 mL of OPTI-MEM I medium was added and diluted.
To this transfection solution, U2-OS cell suspension (11 mL) in McCoy's 5A medium (GIBCO BRL) containing 10% Fetal Bovine Serum (FBS; GIBCO BRL) at […] was added and well mixed.
(§2) 0.2 mL of the above solution was dispensed into each well of 96-well culture plates, and incubated for 24 hours (37° C., 5% CO2).
After removal of 50 μL of medium from each well, 50 μL of McCoy's 5A medium (serum-free) containing compound of the present application was added to a final concentration of 0.01˜2 μM (0.001, 0.01, 0.1, 0.5, 1 or 2 μM), and the plates were incubated for 2 hours (37° C., 5% CO2).
10 μL of the McCoy's 5A medium (serum-free) containing human TNF α (PEPROTECH EC Ltd.) was added to each well to achieve a final concentration of 10 ng/mL, and incubated for 8 hours (37° C., 5% CO2).
(§3) Medium was completely removed and plates were preserved at −80° C. until measurements.
(§4) Cell lysates were prepared by adding 40 μL of Passive Lysis Buffer (Promega Corporation) to each well.
(§5) 10 μL of each lysate was transferred to 96-well white plates. 50 μL of PicaGene L.T.2.0 (TOYO INK MFG. CO., LTD.) was added to each well, then, luminescence was measured after leaving for 10 minutes at room temperature.
(§6) 10 μL of each lysate was transferred to 96-well black plates. 100 μL of Z Buffer (preparation method will be explained later) was added to each well, and fluorescence was measured immediately.
(§7) 10 μL of each lysate was transferred to 96-well clear plates. 200 μL of protein assay reagent prepared from the BCA Protein Assay Kit (Pierce Biotechnology, Inc.) was added to each well, and, absorbance was measured after incubation for 30 minutes at 37° C.
(§8) For measurements of luminescence, fluorescence, and absorbance, microplate reader GENios (TECAN G.M.B.H.) was used.
(3) Calculation of Inhibition Rate
Luminescence values that show the degree of activation by TNF α stimulation were normalized by β-gal values that show transfection efficiency. Using the normalized values, the following calculation was carried out using the luminescence values that increased by TNF α stimulation. Inhibition Rate(%)=[…] E: In the presence of the compound of the present application, increased luminescence values by TNF α stimulation C: Without the presence of the compound of the present application, increased luminescence values by TNF α, stimulation
The values of protein assay by BCA reagent were used for a simple assessment of cytotoxicity, and not used for the calculation of inhibition rates.
NF-κB Inhibition Rates are shown below. The values in parentheses in the table represent the concentration of the compound of the present application.
NF-κB inhibition rates where the concentrations of the compound of the present application were 1, 0.1, 0.01 and 0.001 μM were calculated, and the 50% inhibitory concentrations (IC50) of the compounds of the present application against activation of NF-κB were evaluated.

STAT6 = STAT6 inhibition test: (GLS)x8/pTA-Luc luciferase reporter in U2-OS cells stimulated with human IL-4; type: cell-based; conditions: human IL-4 40 ng/mL; for inhibition at 2 µM / Inhibition Rate of STAT6 (%): compound 2 μM, 8 hours; for inhibition at 2 µM: read-out: Inhibition Rate of STAT6 (%); for pIC50: from inhibition rates at 1, 0.1, 0.01 and 0.001 μM, read-out: IC50 against activation of STAT6
Excerpt: (1) Construction of a STAT6 Reporter Plasmid
The Oligonucleotides (SEQ ID: 1, 2) containing two copies of STAT6 binding sequences (refer to J. Biol. Chem., vol. 276, No. 9, pp. 6675-6688 (2001).) were synthesized, and integrated into the enhancer region of the reporter plasmid pTA-Luc Vector (CLONTECH Laboratories, Inc.) at the restriction enzyme BgIII site.
When the oligonucleotide is integrated in positive direction into the plasmid, the upstream BglII site is not reconstructed. Therefore, STAT6 binding sequences can be increased by repeating integration of the oligonucleotide at the restriction enzyme BglII site.
In the present test, a plasmid including eight integrated STAT6 binding sequences was constructed and provided for the reporter assay as (GLS)x8/pTA-Luc. Confirmation of the sequences was carried out using an automated fluorescence sequencer (Model 310 (Applied Biosystems)).
(2) Transfection into U2-OS Cells and Inhibition Test for STAT6 Activation
U2-OS cells were seeded to at 2×10^4 cells/well in 96-well culture plates, and transfection was carried out using FuGENE 6 Transfection Reagent (Roche Diagnostics GmbH). The procedures of the transfection are shown below.
11 μg of reporter plasmid ((GLS)x8/pTA-Luc) and 1.1 μg of pCMV β (CLONTECH Laboratories, Inc.) were mixed in 1.1 mL of OPTI-MEM I medium (GIBCO BRL) (solution (A)).
33 μL of FuGENE 6 Transfection Reagent was mixed in 1.1 mL of OPTI-MEM I medium (solution (B)).
as §1
To this transfection solution, U2-OS cell suspension (11 mL) in McCoy's 5A medium (GIBCO BRL) containing 10% Fetal Bovine Serum (FBS; GIBCO BRL) at 2×10^5 cells/mL was added and well mixed.
as §2
After removal of 50 μL of medium from each well, 50 μL of McCoy's 5A medium (serum-free) containing compound, of the present application was added to a final concentration of 0.01˜2 μM (0.001, 0.01, 0.1, 0.5, 1 or 2 μM), and the plates were incubated for 2 hours (37° C., 5% CO2).
10 μL of the McCoy's 5A medium (serum-free) containing human IL-4 (R&D Systems, Inc) was added to each well to achieve a final concentration of 40 ng/mL, and incubated for 8 hours (37° C., 5% CO2).
as §3, §4, §5, §6, §7, §8
(4) Calculation of Inhibition Rate
Luminescence values that show the degree of activation by IL-4 stimulation were normalized by β-gal values that show transfection efficiency. Using the normalized values, the following calculations were carried out using the luminescence values increased by IL-4 stimulation. Inhibition Rate(%)=[…] E: In the presence of the compound of the present application, increased luminescence value by IL-4 stimulation C: Without the presence of the compound of the present application, increased luminescence value by IL-4 stimulation […]

Compound	Inhibition Rate of NF-κB (%) (NF-κB)	Inhibition Rate of STAT6 (%) (STAT6)	further results
O=C(Nc1ccc(C2CCNCC2)c(F)c1)c1cc(Cl)ccc1O [Compound 41]	–	–	inhibition at 2 µM (NF-κB; U2OS): 74%; inhibition at 2 µM (STAT6; U2OS): 78%
O=C(Nc1ccc(N2CCCCC2)c(C(F)(F)F)c1)c1cc(Cl)ccc1O [compound 4]	28 (2 μM) %	71 (2 μM) %	–
Cl.NC1CCN(c2ccc(NC(=O)c3cc(Br)ccc3O)cc2F)CC1 [compound 67]	93 (2 μM) %	94 (2 μM) %	pIC50 (NF-κB): 7.80; pIC50 (STAT6): 8.27
CN1CCC(COc2ccc(NC(=O)c3cc(Cl)ccc3O)cc2F)CC1 [compound 51]	86 (2 μM) %	83 (2 μM) %	pIC50 (NF-κB): 7.75; pIC50 (STAT6): 8.05
O=C(Nc1ccc(OC2CCCCC2)c(C(F)(F)F)c1)c1cc(Cl)ccc1O [compound 5]	63 (2 μM) %	88 (2 μM) %	–
NC1CCN(c2ccc(NC(=O)c3cc(Cl)ccc3O)cc2F)C1 (stereo not drawn) [compound 42]	24 (2 μM) %	41 (2 μM) %	–
CC1CN(c2ccc(NC(=O)c3cc(Cl)ccc3O)cc2F)C(C)CN1.Cl.Cl (stereo not drawn) [compound 85]	79 (2 μM) %	72 (2 μM) %	–
Cc1cc(NC(=O)c2cc(Cl)ccc2O)ccc1N1CCNCC1 [compound 23]	11 (2 μM) %	24 (2 μM) %	–
CN1CCN(c2ccc(NC(=O)c3cccc(Cl)c3O)cc2F)CC1.Cl [compound 60]	16 (2 μM) %	26 (2 μM) %	–
Cl.O=C(Nc1ccc(OC2CCNC2)c(F)c1)c1cc(Cl)ccc1O (stereo not drawn) [compound 55]	16 (2 μM) %	35 (2 μM) %	–
CCN1CCCN(c2ccc(NC(=O)c3cc(Cl)ccc3O)cc2F)CC1 [compound 53]	45 (2 μM) %	57 (2 μM) %	–
O=C(Nc1ccc(N2CCCNCC2)c(F)c1)c1cc(Cl)ccc1O [compound 44]	94 (2 μM) %	94 (2 μM) %	pIC50 (NF-κB): 7.80; pIC50 (STAT6): 8.12
O=C(Nc1ccc(N2CCSCC2)c(F)c1)c1cc(Cl)ccc1O [compound 26]	68 (2 μM) %	95 (2 μM) %	–
Cl.O=C(Nc1ccc(OCC2CCCNC2)c(F)c1)c1cc(Cl)ccc1O (stereo not drawn) [compound 49]	87 (2 μM) %	84 (2 μM) %	pIC50 (NF-κB): 7.55; pIC50 (STAT6): 7.83
Cl.NC1CCN(c2ccc(NC(=O)c3cc(Cl)ccc3O)cc2Cl)CC1 [compound 75]	78 (2 μM) %	76 (2 μM) %	pIC50 (NF-κB): 7.45; pIC50 (STAT6): 7.12
Cc1ccc(O)c(C(=O)Nc2ccc(N3CCN(C)CC3)c(F)c2)c1.Cl [compound 57]	62 (2 μM) %	75 (2 μM) %	–
NC1CCN(c2ccc(NC(=O)c3cc(Cl)ccc3O)cc2F)CC1 [compound 66]	92 (2 μM) %	85 (2 μM) %	pIC50 (NF-κB): 8.01; pIC50 (STAT6): 8.42
Cl.NC1CCN(c2ccc(NC(=O)c3ccc(Cl)cc3O)cc2F)CC1 [compound 71]	94 (2 μM) %	92 (2 μM) %	pIC50 (NF-κB): 8.08; pIC50 (STAT6): 8.47
O=C(Nc1ccc(N2CCCCCC2)c(F)c1)c1cc(Cl)ccc1O [compound 7]	46 (2 μM) %	84 (2 μM) %	–
CCOc1cc(NC(=O)c2cc(Cl)ccc2O)ccc1N1CCCCC1 [compound 14]	60 (2 μM) %	56 (2 μM) %	–
CN1CCC(Oc2ccc(NC(=O)c3cc(Cl)ccc3O)cc2F)C1 (stereo not drawn) [compound 38]	64 (2 μM) %	77 (2 μM) %	–
CN1CCN(c2ccc(NC(=O)c3ccc(Cl)cc3O)cc2F)CC1.Cl [compound 61]	80 (2 μM) %	86 (2 μM) %	–
CN1CCN(c2ccc(NC(=O)c3cc(F)ccc3O)cc2F)CC1.Cl [compound 59]	43 (2 μM) %	60 (2 μM) %	–
NC1CCN(c2ccc(NC(=O)c3cc(Cl)ccc3O)cc2F)CC1 [Compound 27]	–	–	inhibition at 2 µM (NF-κB; U2OS): 95%; pIC50 (NF-κB; U2OS): 8.17; inhibition at 2 µM (STAT6; U2OS): 98%; pIC50 (STAT6; U2OS): 8.49
O=C1CCN(c2ccc(NC(=O)c3cc(Cl)ccc3O)cc2F)CC1 [compound 39]	16 (2 μM) %	46 (2 μM) %	–
Cc1cc(NC(=O)c2cc(Cl)ccc2O)ccc1OC1CCN(C)CC1 [compound 25]	60 (2 μM) %	80 (2 μM) %	–
O=C(Nc1ccc(N2CCCNCC2)c(F)c1)c1cc(Br)ccc1O [compound 87]	93 (2 μM) %	91 (2 μM) %	pIC50 (NF-κB): 7.93; pIC50 (STAT6): 7.74
